Measured values reported in patent publication US8278032B2, “Transporter protein in mammal and utilization of the same” (priority 2005, dated 2012).

How the values were obtained:
[1] = target: T1, mMATE1 (Mus musculus, UniProt Q8K0H1); experiment: Inhibition of RI-labeled TEA uptake in HEK293 cells expressing mMATE1; format: cell-based; details: 50 μM RI-labeled TEA, pH 8.0, HEK293 cells expressing mMATE1;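 further: transfected HEK293 cells held 5 min at 37 °C before tracer addition, uptake read as radioactivity retained on a 0.45-µm membrane filter, mean ± SD of three to nine experiments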
T1 construct: expressed in transfected cells; host or cells: HEK293
T1 sequence (Q8K0H1 with tags, fused parts or gaps): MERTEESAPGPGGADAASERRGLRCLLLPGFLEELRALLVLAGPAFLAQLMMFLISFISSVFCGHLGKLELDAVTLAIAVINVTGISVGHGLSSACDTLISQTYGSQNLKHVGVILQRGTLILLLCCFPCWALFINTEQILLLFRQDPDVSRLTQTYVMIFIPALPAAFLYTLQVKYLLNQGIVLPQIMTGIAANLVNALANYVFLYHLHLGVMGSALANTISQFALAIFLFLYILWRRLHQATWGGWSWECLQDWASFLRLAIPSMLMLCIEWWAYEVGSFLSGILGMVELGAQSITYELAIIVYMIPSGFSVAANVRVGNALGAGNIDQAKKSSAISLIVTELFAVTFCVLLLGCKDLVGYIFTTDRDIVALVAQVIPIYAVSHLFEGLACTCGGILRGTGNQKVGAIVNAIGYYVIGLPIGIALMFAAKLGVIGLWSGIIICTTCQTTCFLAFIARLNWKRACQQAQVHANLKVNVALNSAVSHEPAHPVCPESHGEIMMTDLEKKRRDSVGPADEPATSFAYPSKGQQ

[2] = target: T2, hMATE1 (Homo sapiens, UniProt Q96FL8); details: radioactive nicotine 2 μM, FIG. 10
T2 sequence (Q96FL8 1-570): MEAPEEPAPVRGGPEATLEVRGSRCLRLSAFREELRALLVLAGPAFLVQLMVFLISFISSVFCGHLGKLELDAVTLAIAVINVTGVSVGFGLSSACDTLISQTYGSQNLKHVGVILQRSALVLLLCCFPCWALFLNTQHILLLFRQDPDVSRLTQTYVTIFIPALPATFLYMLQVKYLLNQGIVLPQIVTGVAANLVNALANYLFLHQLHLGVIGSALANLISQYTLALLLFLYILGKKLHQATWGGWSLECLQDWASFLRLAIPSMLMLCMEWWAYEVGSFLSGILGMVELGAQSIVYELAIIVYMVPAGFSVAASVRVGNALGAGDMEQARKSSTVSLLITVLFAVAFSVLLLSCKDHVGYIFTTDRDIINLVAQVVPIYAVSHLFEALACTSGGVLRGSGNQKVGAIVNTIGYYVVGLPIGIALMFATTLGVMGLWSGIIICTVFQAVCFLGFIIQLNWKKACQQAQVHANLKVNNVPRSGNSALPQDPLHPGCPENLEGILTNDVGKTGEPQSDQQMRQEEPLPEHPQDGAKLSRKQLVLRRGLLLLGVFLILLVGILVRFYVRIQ

[3] = target: T2, hMATE1; experiment: Inhibition of RI-labeled TEA uptake in HEK293 cells expressing hMATE1; details: for Inhibition of TEA uptake activity (in words, summary of Table 1): MATE1 expressing HEK293 cells, 50 μM TEA, pH 8.0
[4] = target: T2, hMATE1; details: for Km: read-out: Km value of transport, substrate transport, cells expressing wild type MATE1 (TEA: FIG. 9(c)), MPP: MATE1, species not stated
[5] = target: T2, hMATE1; details: 1 mM 14C-TEA, pH of extracellular fluid varied, FIG. 12
[6] = compound 0.1 mM, 50 μM RI-labeled TEA, pH 8.0, HEK293 cells expressing hMATE1
[7] = compound 5 mM, 50 μM RI-labeled TEA, pH 8.0, HEK293 cells expressing hMATE1

SMILES | remaining activity at 100 µM ([1]; compound 0.1 mM, read-out: TEA uptake activity percent taking the level with addition of no compound as 100% (% ± S.D.)) [%] | remaining activity at 5000 µM ([1]; compound 5 mM, read-out: TEA uptake activity percent taking the level with addition of no compound as 100% (% ± S.D.)) [%] | Nicotine transport by MATE1 (in words) [2] | Inhibition of TEA uptake activity (in words, summary of Table 1) [3] | TEA uptake activity percent taking the level with addition of no compound as 100% (% ± S.D.) [3, 6] [%] | TEA uptake activity percent taking the level with addition of no compound as 100% (% ± S.D.) [3, 7] [%] | TEA uptake activity percent taking the level with addition of no compound as 100% (% ± S.D.) ([1]; compound 0.1 mM) [%] | TEA uptake activity percent taking the level with addition of no compound as 100% (% ± S.D.) ([1]; compound 5 mM) [%] | Vmax of transport ([4]; MPP as substrate, MATE1, species not stated) [pmol/min/mg protein] | Km [4] [µM] | TEA uptake activity percent taking the level with addition of no compound as 100% (% ± S.D.) ([3]; pH 8) [%] | Uptake of TEA into liposome containing MATE polypeptide (in words) [5]
CN1CCCC1c1cccnc1 (centres unmarked) [Nicotine] | 91.9 ± 3.1 | 36.7 ± 3.1 | functioning as a nicotine transporter | mildly inhibited | 63.7 ± 5.0 | 5.8 ± 4.3 | – | – | – | – | – | –
C[n+]1ccc(-c2ccccc2)cc1 [MPP, 1-methyl-4-phenylpyridinium] | – | – | – | inhibited | 67.4 ± 8.4 | 0.0 ± 0.3 | 33.1 ± 9.5 | 0.0 ± 2.1 | 170 | 16 | – | –
CC[N+](CC)(CC)CC [TEA, tetraethylammonium] | – | – | – | – | – | – | – | 0.0 ± 7. | – | 220 | 0.7 ± 1.8 | pH-dependent uptake of TEA was observed
